pIC50: −log10 of the molar value. Several values for one entry are separate records, joined by “and”; a condition that tells them apart may be missing. Identical values can stand only once.
Legend:
[1] = system: Ovcar-3 (human ovarian tumour); test: NCI human xenograft study; format: in vivo, mice
Description: (§1) These are carried out on nucle athymic mice with a disabled immune system. The human tumour tissue to be tested is implanted in their flanks, and whilst the control mouse receives no treatment, the others are subjected to varying doses of the test compound, which is administered intraperitoneally. The results are expressed as the toxicity of the compound, the amount of tumour growth, and the inhibition of growth.
(§2) Athymic nude mice bearing MDA-MB-435 xenografts (human mammary tumour), Ovcar-3 (human ovarian tumour), UACC-62 (human melanoma) or OVCAR-5 (human ovarian tumour) were treated at doses of 0.67 (high), 0.45 (middle) and 0.3 (low) mg/kg/injection given once every 4th day for a total of 3 doses (6 mice per dose level with 20 controls).
(§3) UP2001 (80) was evaluated by measuring the toxicity of the drug and its ability to retard tumour growth.
(§4) Toxicity represents the number of mice which died as a result of treatment. % T/C represents the width of the tumours in the “test” mice (T) (as measured with calipers) compared to control untreated mice (C) and presented as a percentage. % Growth Delay represents the increase in the amount of time taken for the tumors to reach an arbitrary size of 250 mg.

[2] = system: MDA-MB-435 xenografts (human mammary tumour); test: NCI human xenograft study; format: in vivo, mice
Description: as §1, §2, §3, §4

[3] = system: OVCAR-5 (human ovarian tumour); test: NCI human xenograft study; format: in vivo, mice
Description: as §1, §2, §3, §4

[4] = system: UACC-62 (human melanoma); test: NCI human xenograft study; format: in vivo, mice
Description: as §1, §2, §3, §4

[5] = system: human CNS tumour SF-295; test: NCI human xenograft study; format: in vivo, mice; conditions: 5 doses
Description: as §1
UP2001 (80) was also evaluated against the human CNS tumour SF-295. Athymic nude mice bearing SF-295 were treated at doses of 0.40, 0.27 and 0.18 mg/Kg by injection given intravenously once daily for a total of 5 doses.

[6] = system: human ovarian carcinoma cell line A2780; test: Cytotoxicity in A2780 (Example 9); format: cell-based
Description: Relative to the parental line, the A2780cisR subline is known to have elevated GSH levels, an increased level of repair of DNA-cisplatin adducts, and a decreased ability to uptake cisplatin (M. Smellie, et al., Br. J. Cancer, 1994, 70, 48).
The results, which were obtained by incubating the cells with the compounds for 96 hours at 37° C., and assessing the cell number using Sulforhodamine B, are presented in the table below: […]

[7] = system: human tumour cells cultivated in hollow fibres implanted in mice; test: NCI Hollow Fibre Assay; format: in vivo
Text: The Biological testing Branch of the Developmental Therapeutics Program of the NCI has adopted a preliminary in vivo screening tool for assessing the potential anticancer activity of compounds identified by the large scale in vitro cell screen. For these assays, human tumour cells are cultivated in polyvinylidene (PVDF) hollow fibres, and a sample of each cell line is implanted into each of two physiologic compartments (intraperitoneal and subcutaneaous) in mice. Each test mouse received a total of 6 fibres (3 intraperitoneally and 3 subcutaneously) representing 3 distinct cancer cell lines. These mice are treated with potential antitumour compounds at each of 2 test doses by the intraperitoneal route using a QD×4 treatment schedule. Vehicle controls consist of 6 mice receiving the compound diluent only. The fibre cultures are collected on the day following the last day of treatment. To assess anticancer effects, the viable cell mass is determined for each of the cell lines using a formazyn dye (MTT) conversion assay. From this, the % T/C can be calculated using the average optical density of compound treated samples divided by the average optical; density of the vehicle controls. In addition, the net increase in cell mass can be determined for each sample, as a sample of fibre cultures are assessed for viable cell mass on the day of implantation into mice. Thus, the cytostatic and cytocidal capacities of the test compound can be assessed.
Generally, each compound is tested against a minimum of 12 human cancer cell lines. This represents a total of 4 experiments since each experiment contains 3 cell lines. The data are reported as % T/C for each of the 2 compound doses against each of the cell lines with separate values calculated for the intraperitoneal and subcutaneous samples.
Compounds are selected for further in vivo testing in standard subcutaneous xenograft models on the basis of several hollow fibre assay criteria. These include: (1) a % T/C of 50 or less in 10 of the 48 possible test combinations (12 cell lines×2 sites×2 Compound doses); (2) activity at a distance (intraperitoneal drug/subcutaneous culture) in a minimum of 4 of the 24 possible combinations; and/or (3) a net cell kill of 1 or more of the cell lines in either implant site. To simplify evaluation, a points system has been adopted which allows rapid evaluation of the activity of a given compound. For this, a value of 2 is assigned for each compound dose which results in a 50% or greater reduction in viable cell mass. The intraperitoneal and subcutaneous samples are scored separately so that criteria (1) and (2) can be evaluated. Compounds with a combined IP+SC score of 20, a SC score of 8 or a net cell kill of one or more cell lines are referred for xenograft testing. […] In addition to these criteria, other factors (e.g. unique structure, mechanism of action) may result in referral of a compound for xenograft testing without the compound meeting these criteria.

[8] = 0.3 mg/kg/injection once every 4th day, 3 doses
[9] = 0.3 mg/kg/injection once every 4th day, 3 doses, mice which died as a result of treatment
[10] = 0.3 mg/kg/injection, time for tumours to reach 250 mg
[11] = 0.45 mg/kg/injection once every 4th day, 3 doses
[12] = 0.45 mg/kg/injection once every 4th day, 3 doses, mice which died as a result of treatment
[13] = 0.45 mg/kg/injection, time for tumours to reach 250 mg
[14] = 0.67 mg/kg/injection once every 4th day, 3 doses
[15] = 0.67 mg/kg/injection once every 4th day, 3 doses, mice which died as a result of treatment
[16] = 0.67 mg/kg/injection, time for tumours to reach 250 mg
[17] = MDA-MB-435 xenografts, dose not given

C=C1C[C@H]2C=Nc3cc(OCCCOc4cc5c(cc4OC)C(=O)N4CC(=C)C[C@H]4C=N5)c(OC)cc3C(=O)N2C1 [UP2001 (80)]
% T/C Low [1, 8]: 46%
Toxicity Low [1, 9]: 0/6
% Growth Delay Low [1, 10]: 9%
% T/C Mid [1, 11]: 20%
Toxicity Mid [1, 12]: 0/6
% Growth Delay Mid [1, 13]: 73%
% T/C High [1, 14]: 7%
Toxicity High [1, 15]: 0/6
% Growth Delay High [1, 16]: 73%
% T/C Low ([2]; MDA-MB-435, 0.3 mg/kg/injection once every 4th day, 3 doses): 3%
Toxicity Low ([2]; MDA-MB-435, 0.3 mg/kg/injection once every 4th day, 3 doses, mice which died as a result of treatment): 2/6
% Growth Delay Low ([2]; MDA-MB-435, 0.3 mg/kg/injection, time for tumours to reach 250 mg): 41%
% T/C Mid ([2]; MDA-MB-435, 0.45 mg/kg/injection once every 4th day, 3 doses): 3%
Toxicity Mid ([2]; MDA-MB-435, 0.45 mg/kg/injection once every 4th day, 3 doses, mice which died as a result of treatment): 1/6
% Growth Delay Mid ([2]; MDA-MB-435, 0.45 mg/kg/injection, time for tumours to reach 250 mg): 41%
% T/C High ([2]; MDA-MB-435, 0.67 mg/kg/injection once every 4th day, 3 doses): toxic
Toxicity High ([2]; MDA-MB-435, 0.67 mg/kg/injection once every 4th day, 3 doses, mice which died as a result of treatment): 3/6
% Growth Delay High ([2]; MDA-MB-435, 0.67 mg/kg/injection, time for tumours to reach 250 mg): 41%
delay in the time taken to reach tumour mass of 250 mg [2, 17]: 41%
tumour growth in treated mice as % of the tumour growth in the control population [2, 17]: 3%
% T/C Low ([3]; OVCAR-5, 0.3 mg/kg/injection once every 4th day, 3 doses): 38%
Toxicity Low ([3]; OVCAR-5, 0.3 mg/kg/injection once every 4th day, 3 doses, mice which died as a result of treatment): 0/6
% Growth Delay Low ([3]; OVCAR-5, 0.3 mg/kg/injection, time for tumours to reach 250 mg): 32%
% T/C Mid ([3]; OVCAR-5, 0.45 mg/kg/injection once every 4th day, 3 doses): 45%
Toxicity Mid ([3]; OVCAR-5, 0.45 mg/kg/injection once every 4th day, 3 doses, mice which died as a result of treatment): 0/6
% Growth Delay Mid ([3]; OVCAR-5, 0.45 mg/kg/injection, time for tumours to reach 250 mg): 28%
% T/C High ([3]; OVCAR-5, 0.67 mg/kg/injection once every 4th day, 3 doses): 52%
Toxicity High ([3]; OVCAR-5, 0.67 mg/kg/injection once every 4th day, 3 doses, mice which died as a result of treatment): 0
% Growth Delay High ([3]; OVCAR-5, 0.67 mg/kg/injection, time for tumours to reach 250 mg): 16%
tumour size reduction ([3]; OVCAR-5 xenografts, dose not given): approximately 50%
% T/C Low [4, 8]: 67%
Toxicity Low [4, 9]: 0/6
% Growth Delay Low [4, 10]: 43%
% T/C Mid [4, 11]: 28%
Toxicity Mid [4, 12]: 0/6
% Growth Delay Mid [4, 13]: 43%
% T/C High [4, 14]: 22%
Toxicity High [4, 15]: 0/6
% Growth Delay High [4, 16]: 43%
% T/C Low ([5]; 0.18 mg/Kg intravenously once daily): 0%
Toxicity Low ([5]; 0.18 mg/Kg intravenously once daily, mice dying): two and 2/6
Tumour Free Low ([5]; 0.18 mg/Kg intravenously once daily, surviving mice tumour free on day 27): 3 out of 4 and 3/4
% T/C Med ([5]; 0.27 mg/Kg intravenously once daily): 0%
Toxicity Med ([5]; 0.27 mg/Kg intravenously once daily, mice dying): 1 and 1/6
Tumour Free Med ([5]; 0.27 mg/Kg intravenously once daily, surviving mice tumour free on day 27): all the surviving mice were tumour free and 5/5
% T/C High ([5]; 0.40 mg/Kg intravenously once daily): 0%
Toxicity High ([5]; 0.40 mg/Kg intravenously once daily, mice dying): 2 and 2/6
Tumour Free High ([5]; 0.40 mg/Kg intravenously once daily, surviving mice tumour free on day 27): all the surviving mice were tumour free and 4/4
fold increase in cytotoxicity compared to DSB-120 ([6]; A2780 cell line): 320 fold
pIC50 ([6]; Homo sapiens, A2780, 96 h, read-out: IC50 A2780): 10.64
Total score ([7]; combined IP+SC score): 54
IP score ([7]; intraperitoneal fibres, 2 points per dose giving 50% or greater reduction in viable cell mass): 40
SC score ([7]; subcutaneous fibres, 2 points per dose giving 50% or greater reduction in viable cell mass): 14

From patent US7049311B1, “Pyrrolbenzodiazepines” (Spirogen Limited, priority 1998, dated 2006)
